Measured values published in article PMC11345841, “Exploring 2-Sulfonylpyrimidine Warheads as Acrylamide Surrogates for Targeted Covalent Inhibition: A BTK Story” (Journal of Medicinal Chemistry, 2024).
Where two headings read alike, the source gives them in different places.

Assays:
TMD8 cells = experiment: Annexin V/propidium iodide staining (apoptosis, viability); assay type: cell-based, human; conditions: 72 h
Experimental: We tested the effects of compounds in TMD8 cells, derived from an activated B-cell DLBCL. These cells have constitutive signaling via the BCR and additionally carry MYD88^L265P and CD79B mutations which give rise to My-T-BCR complex. […] Apoptosis was quantified after exposure of cells to compounds for 72 h using annexin V/PI staining and flow cytometry (Figure 3E, Figure S4).
Cells were washed in phosphate-buffered saline and resuspended in 300 μL of annexin V staining buffer (10 mM HEPES HCl (pH 7.4), 140 mM NaCl, 2.5 mM CaCl2) supplemented with 2.5 μg/mL fluorescein isothiocyanate-labeled annexin V (kind gift from Dr Patrick Duriez, Protein Core Facility, University of Southampton) and 12.5 μM propidium iodide (Invitrogen). Cells were analyzed by flow cytometry (Canto II system, BD Biosciences) and the percentage of viable cells was determined by calculating the proportion of Annexin V-/PI-cells as a percentage of all cells (results for untreated cells at 72 h set to 100%).

[1] = biological target: T1, ABL1(F317I)-phosphorylated (Homo sapiens, UniProt P00519, F317I); experiment: KINOMEscan ScanTK; assay type: binding
T1 construct: purchased Eurofins DiscoverX KINOMEscan (scanTK)

BMX = biological target: T2, BMX (Homo sapiens, UniProt P51813); experiment: KINOMEscan ScanTK; assay type: binding
T2 construct: purchased Eurofins DiscoverX KINOMEscan (scanTK)
T2 sequence (P51813 1-675): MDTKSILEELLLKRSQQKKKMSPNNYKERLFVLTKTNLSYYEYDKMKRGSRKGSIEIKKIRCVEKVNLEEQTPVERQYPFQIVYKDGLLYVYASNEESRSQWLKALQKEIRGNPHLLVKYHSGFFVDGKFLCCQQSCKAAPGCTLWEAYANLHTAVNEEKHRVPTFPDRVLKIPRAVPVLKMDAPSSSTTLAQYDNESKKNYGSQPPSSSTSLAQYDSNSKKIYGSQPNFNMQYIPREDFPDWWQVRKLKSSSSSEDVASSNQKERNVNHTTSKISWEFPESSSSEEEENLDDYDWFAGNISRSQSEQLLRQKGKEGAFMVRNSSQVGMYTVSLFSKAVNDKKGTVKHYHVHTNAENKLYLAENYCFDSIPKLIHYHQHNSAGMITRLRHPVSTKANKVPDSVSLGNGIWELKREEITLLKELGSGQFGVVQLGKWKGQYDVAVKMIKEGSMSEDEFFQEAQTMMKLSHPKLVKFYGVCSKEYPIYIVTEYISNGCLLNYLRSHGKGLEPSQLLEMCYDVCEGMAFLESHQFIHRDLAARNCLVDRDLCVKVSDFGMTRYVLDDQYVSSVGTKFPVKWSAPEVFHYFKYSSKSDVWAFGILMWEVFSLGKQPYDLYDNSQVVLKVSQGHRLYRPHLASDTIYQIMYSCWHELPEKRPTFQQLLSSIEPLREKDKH

[2] = biological target: T3, EGFR(L747-S752del, P753S) (Homo sapiens, UniProt P00533, DEL747-752/P753S); experiment: KINOMEscan ScanTK; assay type: binding
T3 construct: purchased Eurofins DiscoverX KINOMEscan (scanTK)

EGFR(L858R) = biological target: T4, EGFR(L858R) (Homo sapiens, UniProt P00533, L858R); experiment: KINOMEscan ScanTK; assay type: binding
T4 construct: purchased Eurofins DiscoverX KINOMEscan (scanTK)

MERTK = biological target: T5, MERTK (Homo sapiens, UniProt Q12866); experiment: KINOMEscan ScanTK; assay type: binding
T5 construct: purchased Eurofins DiscoverX KINOMEscan (scanTK)
T5 sequence (Q12866 21-999): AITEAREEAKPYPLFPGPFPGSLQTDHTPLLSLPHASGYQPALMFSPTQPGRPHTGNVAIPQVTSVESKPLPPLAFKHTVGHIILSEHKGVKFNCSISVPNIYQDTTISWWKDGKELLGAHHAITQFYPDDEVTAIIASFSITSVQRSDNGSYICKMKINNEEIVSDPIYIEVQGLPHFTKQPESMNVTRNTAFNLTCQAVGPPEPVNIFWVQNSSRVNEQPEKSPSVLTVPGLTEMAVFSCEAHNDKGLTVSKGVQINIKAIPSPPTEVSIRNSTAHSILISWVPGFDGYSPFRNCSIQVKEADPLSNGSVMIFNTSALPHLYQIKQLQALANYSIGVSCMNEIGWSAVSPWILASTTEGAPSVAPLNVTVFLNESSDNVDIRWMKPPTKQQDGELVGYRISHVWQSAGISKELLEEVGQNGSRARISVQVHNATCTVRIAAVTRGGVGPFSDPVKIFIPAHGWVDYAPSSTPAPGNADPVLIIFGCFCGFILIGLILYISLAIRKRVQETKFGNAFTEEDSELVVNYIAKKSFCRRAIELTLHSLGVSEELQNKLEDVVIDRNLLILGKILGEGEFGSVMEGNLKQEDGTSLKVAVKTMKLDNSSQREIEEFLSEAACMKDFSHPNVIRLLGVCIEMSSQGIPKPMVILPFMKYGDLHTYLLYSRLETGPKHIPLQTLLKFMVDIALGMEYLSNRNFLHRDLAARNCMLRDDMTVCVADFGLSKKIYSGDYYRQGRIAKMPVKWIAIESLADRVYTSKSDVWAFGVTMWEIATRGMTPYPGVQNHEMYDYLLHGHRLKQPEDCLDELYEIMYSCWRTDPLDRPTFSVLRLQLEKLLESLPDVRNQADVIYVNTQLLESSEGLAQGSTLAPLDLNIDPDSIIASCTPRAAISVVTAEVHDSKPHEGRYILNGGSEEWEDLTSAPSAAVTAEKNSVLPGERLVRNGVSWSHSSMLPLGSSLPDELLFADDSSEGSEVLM

MST1R = biological target: T6, MST1R (Homo sapiens, UniProt Q04912); experiment: KINOMEscan ScanTK; assay type: binding
T6 construct: purchased Eurofins DiscoverX KINOMEscan (scanTK)

[3] = biological target: T7, TYK2(JH1domain-catalytic) (Homo sapiens, UniProt P29597); experiment: KINOMEscan ScanTK; assay type: binding
T7 construct: TYK2(JH1domain-catalytic); purchased Eurofins DiscoverX KINOMEscan (scanTK)
T7 sequence (P29597 888-1187 limits assumed): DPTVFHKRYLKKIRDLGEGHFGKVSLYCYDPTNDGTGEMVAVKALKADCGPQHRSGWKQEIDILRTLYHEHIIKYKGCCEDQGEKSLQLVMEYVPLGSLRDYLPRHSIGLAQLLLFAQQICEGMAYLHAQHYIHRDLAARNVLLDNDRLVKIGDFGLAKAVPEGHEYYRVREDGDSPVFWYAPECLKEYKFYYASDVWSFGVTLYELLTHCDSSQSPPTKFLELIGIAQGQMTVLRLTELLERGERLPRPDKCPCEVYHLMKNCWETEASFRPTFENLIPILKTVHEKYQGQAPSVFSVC

T3 sequence (P00533 with tags, fused parts or gaps DEL747-752/P753S limits assumed): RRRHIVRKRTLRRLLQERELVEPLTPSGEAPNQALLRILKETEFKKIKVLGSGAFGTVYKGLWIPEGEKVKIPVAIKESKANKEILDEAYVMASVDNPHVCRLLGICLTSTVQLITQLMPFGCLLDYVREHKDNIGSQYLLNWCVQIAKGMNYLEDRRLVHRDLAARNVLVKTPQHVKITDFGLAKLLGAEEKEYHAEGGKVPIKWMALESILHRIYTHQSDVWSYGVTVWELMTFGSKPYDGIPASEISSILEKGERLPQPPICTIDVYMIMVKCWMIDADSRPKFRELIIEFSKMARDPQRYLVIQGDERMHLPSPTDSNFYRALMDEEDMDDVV
T6 sequence (Q04912 25-1400): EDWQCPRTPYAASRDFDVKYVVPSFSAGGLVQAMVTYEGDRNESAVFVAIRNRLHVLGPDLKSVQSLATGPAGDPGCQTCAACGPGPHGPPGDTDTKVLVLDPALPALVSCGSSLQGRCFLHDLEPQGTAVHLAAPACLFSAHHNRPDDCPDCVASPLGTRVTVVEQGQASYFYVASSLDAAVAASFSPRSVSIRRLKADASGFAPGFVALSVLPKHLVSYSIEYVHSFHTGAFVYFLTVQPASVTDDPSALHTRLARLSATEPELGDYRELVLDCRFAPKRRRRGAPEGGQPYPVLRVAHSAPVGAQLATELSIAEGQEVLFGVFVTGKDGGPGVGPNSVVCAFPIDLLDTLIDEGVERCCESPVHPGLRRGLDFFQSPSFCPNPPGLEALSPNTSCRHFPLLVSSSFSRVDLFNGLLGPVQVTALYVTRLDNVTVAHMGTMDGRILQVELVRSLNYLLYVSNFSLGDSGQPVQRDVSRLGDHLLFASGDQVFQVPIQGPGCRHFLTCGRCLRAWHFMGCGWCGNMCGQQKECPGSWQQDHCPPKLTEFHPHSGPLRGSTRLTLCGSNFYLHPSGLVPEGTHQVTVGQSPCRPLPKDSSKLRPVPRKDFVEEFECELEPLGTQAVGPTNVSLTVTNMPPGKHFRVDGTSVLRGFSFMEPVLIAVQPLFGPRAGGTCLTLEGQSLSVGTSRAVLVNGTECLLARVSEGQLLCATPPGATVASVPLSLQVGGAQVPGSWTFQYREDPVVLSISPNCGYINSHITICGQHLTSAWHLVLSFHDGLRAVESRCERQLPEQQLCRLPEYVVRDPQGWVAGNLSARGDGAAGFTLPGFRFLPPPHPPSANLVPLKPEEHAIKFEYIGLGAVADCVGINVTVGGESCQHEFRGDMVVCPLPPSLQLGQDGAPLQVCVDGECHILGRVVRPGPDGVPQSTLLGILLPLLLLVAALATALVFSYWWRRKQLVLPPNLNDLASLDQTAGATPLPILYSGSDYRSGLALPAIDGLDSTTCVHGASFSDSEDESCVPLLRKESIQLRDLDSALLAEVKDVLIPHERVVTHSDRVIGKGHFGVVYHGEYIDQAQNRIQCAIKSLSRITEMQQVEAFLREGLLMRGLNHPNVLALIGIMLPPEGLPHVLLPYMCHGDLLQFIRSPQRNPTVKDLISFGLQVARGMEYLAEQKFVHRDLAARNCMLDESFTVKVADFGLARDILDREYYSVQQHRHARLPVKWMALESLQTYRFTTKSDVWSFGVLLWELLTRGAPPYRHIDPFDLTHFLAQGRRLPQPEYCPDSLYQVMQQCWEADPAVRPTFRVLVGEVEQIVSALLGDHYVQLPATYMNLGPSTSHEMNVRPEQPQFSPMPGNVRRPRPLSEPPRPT
T1 sequence (P00519 whole entry F317I): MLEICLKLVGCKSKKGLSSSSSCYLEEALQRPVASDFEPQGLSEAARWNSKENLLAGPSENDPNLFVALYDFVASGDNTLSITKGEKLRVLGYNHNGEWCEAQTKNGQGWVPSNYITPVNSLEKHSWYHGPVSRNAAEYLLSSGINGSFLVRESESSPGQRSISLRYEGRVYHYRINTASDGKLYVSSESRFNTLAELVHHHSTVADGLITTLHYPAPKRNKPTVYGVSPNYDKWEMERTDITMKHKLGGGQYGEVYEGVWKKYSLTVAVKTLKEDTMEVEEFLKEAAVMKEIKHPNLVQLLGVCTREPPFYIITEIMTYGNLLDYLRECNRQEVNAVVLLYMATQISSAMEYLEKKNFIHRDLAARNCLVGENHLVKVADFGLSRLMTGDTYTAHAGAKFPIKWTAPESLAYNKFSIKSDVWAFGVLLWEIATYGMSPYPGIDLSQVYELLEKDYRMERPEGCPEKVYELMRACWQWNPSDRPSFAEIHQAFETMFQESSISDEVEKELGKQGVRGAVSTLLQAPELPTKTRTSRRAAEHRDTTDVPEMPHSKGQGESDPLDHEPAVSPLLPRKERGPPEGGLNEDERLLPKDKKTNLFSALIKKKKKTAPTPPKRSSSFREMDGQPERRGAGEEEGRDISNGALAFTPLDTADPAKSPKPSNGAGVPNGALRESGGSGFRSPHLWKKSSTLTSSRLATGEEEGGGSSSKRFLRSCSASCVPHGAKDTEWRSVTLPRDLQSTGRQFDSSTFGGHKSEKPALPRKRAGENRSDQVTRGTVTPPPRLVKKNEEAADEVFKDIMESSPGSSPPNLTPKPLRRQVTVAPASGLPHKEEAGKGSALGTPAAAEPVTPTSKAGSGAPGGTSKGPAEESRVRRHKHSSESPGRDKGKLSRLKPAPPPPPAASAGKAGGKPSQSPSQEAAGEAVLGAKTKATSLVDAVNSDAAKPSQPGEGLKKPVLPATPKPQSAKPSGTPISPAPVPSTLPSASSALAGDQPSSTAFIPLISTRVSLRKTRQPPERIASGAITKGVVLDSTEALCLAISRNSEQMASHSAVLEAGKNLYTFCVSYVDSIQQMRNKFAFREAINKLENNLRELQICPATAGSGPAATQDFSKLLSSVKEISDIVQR
T4 sequence (P00533 25-1210 L858R): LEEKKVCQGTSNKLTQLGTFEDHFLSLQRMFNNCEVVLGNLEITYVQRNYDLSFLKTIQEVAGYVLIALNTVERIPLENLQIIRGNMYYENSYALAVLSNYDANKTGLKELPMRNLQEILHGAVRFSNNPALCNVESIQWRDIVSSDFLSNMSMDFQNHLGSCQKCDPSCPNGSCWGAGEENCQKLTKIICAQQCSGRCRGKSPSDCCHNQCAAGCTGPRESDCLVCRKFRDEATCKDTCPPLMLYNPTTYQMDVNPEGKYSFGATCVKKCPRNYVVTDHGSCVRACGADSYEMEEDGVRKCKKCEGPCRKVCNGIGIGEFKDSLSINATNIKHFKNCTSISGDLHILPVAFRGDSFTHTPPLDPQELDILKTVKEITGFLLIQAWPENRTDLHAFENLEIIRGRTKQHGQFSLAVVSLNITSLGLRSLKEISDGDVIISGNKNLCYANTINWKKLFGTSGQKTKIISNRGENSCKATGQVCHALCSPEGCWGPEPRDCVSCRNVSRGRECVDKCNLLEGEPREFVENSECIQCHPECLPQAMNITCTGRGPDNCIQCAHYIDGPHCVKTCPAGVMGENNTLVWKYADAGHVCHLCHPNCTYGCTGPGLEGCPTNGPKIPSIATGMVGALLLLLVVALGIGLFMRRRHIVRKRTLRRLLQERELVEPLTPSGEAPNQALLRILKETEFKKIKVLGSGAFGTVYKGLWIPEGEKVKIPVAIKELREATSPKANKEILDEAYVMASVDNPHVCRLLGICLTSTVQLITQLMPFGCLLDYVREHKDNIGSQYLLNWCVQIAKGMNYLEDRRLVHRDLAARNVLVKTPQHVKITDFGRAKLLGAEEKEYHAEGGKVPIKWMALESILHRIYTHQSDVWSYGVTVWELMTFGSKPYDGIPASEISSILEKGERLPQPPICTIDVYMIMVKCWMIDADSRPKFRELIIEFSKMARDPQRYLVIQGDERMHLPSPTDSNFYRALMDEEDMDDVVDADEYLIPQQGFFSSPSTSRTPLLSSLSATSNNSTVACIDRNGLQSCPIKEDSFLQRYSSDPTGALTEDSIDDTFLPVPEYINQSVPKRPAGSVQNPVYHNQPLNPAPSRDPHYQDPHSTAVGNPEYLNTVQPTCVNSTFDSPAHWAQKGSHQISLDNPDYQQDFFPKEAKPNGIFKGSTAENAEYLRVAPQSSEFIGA

| Structure (SMILES) | difference in %Control from reference compound Ib at 1 µM ([1]; @1000nM) [%] | remaining binding at 1 µM ([1]; @1000nM, read-out: %Control) [%] | remaining binding at 1 µM ([1]; read-out: %Control @1000nM) [%] | difference in %Control versus compound Ib at 1 µM (BMX; @1000nM) [%] | remaining binding at 1 µM (BMX; @1000nM, read-out: %Control) [%] | remaining binding at 1 µM (BMX; read-out: %Control @1000nM) [%] | difference in %Control versus compound Ib at 1 µM ([2]; @1000nM) [%] | remaining binding at 1 µM ([2]; @1000nM, read-out: %Control) [%] | remaining binding at 1 µM ([2]; read-out: %Control @1000nM) [%] | %Control difference from compound Ib at 1 µM (EGFR(L858R); @1000nM) [%] | remaining binding at 1 µM (EGFR(L858R); @1000nM, read-out: %Control) [%] | remaining binding at 1 µM (EGFR(L858R); read-out: %Control @1000nM) [%] | remaining binding at 1 µM (MERTK; @1000nM, read-out: %Control) [%] | remaining binding at 1 µM (MERTK; read-out: %Control @1000nM) [%] | remaining binding at 1 µM (MST1R; @1000nM, read-out: %Control) [%] | remaining binding at 1 µM (MST1R; read-out: %Control @1000nM) [%] | remaining binding at 1 µM ([3]; @1000nM, read-out: %Control) [%] | remaining binding at 1 µM ([3]; read-out: %Control @1000nM) [%] | induction of apoptosis (TMD8 cells) | fold lower apoptotic potency than Ibrutinib (TMD8 cells) [fold] |
| --- | --- | --- | --- | --- | --- | --- | --- | --- | --- | --- | --- | --- | --- | --- | --- | --- | --- | --- | --- | --- |
| C=CC(=O)N1CCC[C@@H](n2nc(-c3ccc(Oc4ccccc4)cc3)c3c(N)ncnc32)C1 [Compound 1g, Ibrutinib, reference compound] | – | 73 | 73 | – | – | – | – | – | – | – | – | – | 38 | 38 | – | – | – | – | – | – |
| CNC(=O)c1cnc(S(C)(=O)=O)nc1N1CCCC(n2nc(-c3ccc(Oc4ccccc4)cc3)c3c(N)ncnc32)C1 (stereo not shown) [Compound 8d, 4-(3-(4-Amino-3-(4-phenoxyphenyl)-1H-pyrazolo[3,4-d]pyrimidin-1-yl)piperidin-1-yl)-N-methyl-2-(methylsulfonyl)pyrimidine-5-carboxamide] | 17 | 90 | 90 | 20 | 61 | 61 | 36.5 | 42 | 42 | 39.1 | 41 | 41 | 49 | 49 | 100 | 100 | 100 | 100 | induced apoptosis | ~10 |

Now from value to compound, other results behind:

| difference in %Control from reference compound Ib at 1 µM ([1]; @1000nM) [%] | remaining binding at 1 µM ([1]; @1000nM, read-out: %Control) [%] | remaining binding at 1 µM ([1]; read-out: %Control @1000nM) [%] | difference in %Control versus compound Ib at 1 µM (BMX; @1000nM) [%] | remaining binding at 1 µM (BMX; @1000nM, read-out: %Control) [%] | remaining binding at 1 µM (BMX; read-out: %Control @1000nM) [%] | difference in %Control versus compound Ib at 1 µM ([2]; @1000nM) [%] | remaining binding at 1 µM ([2]; @1000nM, read-out: %Control) [%] | remaining binding at 1 µM ([2]; read-out: %Control @1000nM) [%] | %Control difference from compound Ib at 1 µM (EGFR(L858R); @1000nM) [%] | remaining binding at 1 µM (EGFR(L858R); @1000nM, read-out: %Control) [%] | remaining binding at 1 µM (EGFR(L858R); read-out: %Control @1000nM) [%] | remaining binding at 1 µM (MERTK; @1000nM, read-out: %Control) [%] | remaining binding at 1 µM (MERTK; read-out: %Control @1000nM) [%] | remaining binding at 1 µM (MST1R; @1000nM, read-out: %Control) [%] | remaining binding at 1 µM (MST1R; read-out: %Control @1000nM) [%] | remaining binding at 1 µM ([3]; @1000nM, read-out: %Control) [%] | remaining binding at 1 µM ([3]; read-out: %Control @1000nM) [%] | Structure (SMILES) | induction of apoptosis (TMD8 cells) | fold lower apoptotic potency than Ibrutinib (TMD8 cells) [fold] |
| --- | --- | --- | --- | --- | --- | --- | --- | --- | --- | --- | --- | --- | --- | --- | --- | --- | --- | --- | --- | --- |
| 15 | 88 | 88 | 28 | 69 | 69 | 94.5 | 100 | 100 | 64.1 | 66 | 66 | 71 | 71 | 98 | 98 | 100 | 100 | CCOC(=O)c1cnc(S(C)(=O)=O)nc1N1CCC[C@@H](n2nc(-c3ccc(Oc4ccccc4)cc3)c3c(N)ncnc32)C1 [Compound 8c, Ethyl (R)-4-(3-(4-Amino-3-(4-phenoxyphenyl)-1H-pyrazolo[3,4-d]pyrimidin-1-yl)piperidin-1-yl)-2-(methylsulfonyl)pyrimidine-5-carboxylate] | essentially inactive | – |
| 17 | 90 | 90 | -3 | 38 | 38 | 88.5 | 94 | 94 | 81.1 | 83 | 83 | 60 | 60 | 100 | 100 | 89 | 89 | Cc1cnc(S(C)(=O)=O)nc1N1CCCC(n2nc(-c3ccc(Oc4ccccc4)cc3)c3c(N)ncnc32)C1 (stereo not shown) [Compound 8a, 1-(1-(5-Methyl-2-(methylsulfonyl)pyrimidin-4-yl)piperidin-3-yl)-3-(4-phenoxyphenyl)-1H-pyrazolo[3,4-d]pyrimidin-4-amine] | induced apoptosis | ~10 |
| 6 | 79 | 79 | 12 | 53 | 53 | 89.5 | 95 | 95 | 72.1 | 74 | 74 | 67 | 67 | 96 | 96 | 95 | 95 | COC(=O)c1cnc(S(C)(=O)=O)nc1N1CCCC(n2nc(-c3ccc(Oc4ccccc4)cc3)c3c(N)ncnc32)C1 (stereo not shown) [Compound 8b, Methyl 4-(3-(4-Amino-3-(4-phenoxyphenyl)-1H-pyrazolo[3,4-d]pyrimidin-1-yl)piperidin-1-yl)-2-(methylsulfonyl)pyrimidine-5-carboxylate] | induced apoptosis | – |
